This is an account of results in US20100204140A1, “USE OF A PEPTIDE AS A THERAPEUTIC AGENT” (priority 2007, published 2010).

By % inhibition is commonly meant the percentage by which the read-out fell short of the control. Low values mean little suppression, high ones strong suppression.

The test system of this experiment is drug-resistant Mycobacterium tuberculosis. The conditions noted are these: peptide 10 micrograms per ml, seven days.

Regarding `CSCC[C@H](NC(=O)[C@H](CC(C)C)NC(=O)CNC(=O)[C@@H](NC(=O)[C@H](Cc1ccccc1)NC(=O)[C@H](Cc1ccccc1)NC(=O)[C@H](CC(=O)O)NC(=O)[C@H](Cc1c[nH]cn1)NC(=O)[C@H](CCSC)NC(=O)[C@@H](N)CC(=O)O)C(C)C)C(N)=O` [Neurokinin B], the “% inhibition” value is recorded as 0.0%.
